From a melting point compilation (Tetko et al.; mined from patent text by program, amines drawn as free bases though some values may be those of a salt) come the findings set out here.

One may read the melting point as the temperature of the solid-liquid transition.

Consider `CCC(CC)c1nn(-c2ccc(C(F)(F)F)nn2)cc1CCCOc1c(CC(=O)O)cccc1OC`, for which the melting point is 81 to 82 °C. Under `CC(=O)c1ccc(NS(C)(=O)=O)c(Oc2ccccc2)c1` stands 113 to 114 °C; under `CN(C)CCS(=O)(=O)NC(=O)CCn1c2ccc(O)cc2c2c3c(c(-c4ccccc4Cl)cc21)C(=O)NC3=O`, 229 to 233 °C.

In turn, `O=c1[nH]c(CCCN2CCCC2)cc2ccccc12` gave a melting point of 117 to 119 °C. Then `N#CC(C(N)=S)=C(N)N1CCCC1`, with 164 °C; and `O=C(O)CNC(=O)C1(CS)Cc2ccccc2C1`, with 137 to 143 °C; and `N#Cc1ccc(-c2cccc(C=O)n2)cc1`, with 158 to 159 °C.

`CC1=C(C2C=CN(C(=O)OCC(Cl)(Cl)Cl)c3ccccc32)SCC(=O)N1` (stereo not drawn) displayed a melting point of 166 to 167 °C.

In turn, `CC(C)[Si](C)(C)CCSCCCNC(=O)n1cc(F)c(=O)[nH]c1=O` yielded a melting point of 122 to 123 °C. `COc1cc2c(cc1C(F)(F)F)N(C(=O)N(c1cccc(C)c1)c1ncon1)CC2`: the melting point fell in the range of 203 to 204 °C.

Compound `CCCc1c(OCc2ccc(C(=O)O)cc2[N+](=O)[O-])ccc(C(C)=O)c1O` displayed a melting point of 226 to 228 °C. Under `CC(C)Oc1cccc(CSc2nc(N)cc(Cl)n2)c1` stands 71 °C. `O=C(O)Cc1cccc2c(=O)cc(-c3c(F)c(F)c(F)c(F)c3F)oc12` registered a melting point of 156 to 160 °C. Then `CCCCOc1c(CNC(=O)OC(C)(C)C)n(CC(C)C)c(=O)c2ccc(-c3cccs3)cc12`, with 130 to 131 °C; and `CCC(=O)OC(C#N)C(C#N)c1ccc(OC)c(OC)c1` (stereo not drawn), with 92 to 94 °C.

`C=CC(=O)OCCOC(=O)Cc1cc(O)n2ncnc2n1`: the melting point was 108 to 109 °C. Then `COc1ccc(OCc2cccc(OCc3ccc4ccccc4n3)c2)cc1`, with 83 to 85 °C; and `O=C(O)C1CC(=O)N(Cc2ccccc2)C1C(=O)N(Cc1ccccc1)Cc1ccccc1` (stereo not drawn), with 123 to 125 °C. Under `CC1CCC2(CC1S(=O)(=O)c1ccccc1)OCCO2` (stereo not drawn) stands 105 to 106 °C; under `c1cnc2c(c1)-c1sccc1C2Cc1ccncc1` (stereo not drawn), 178 to 181 °C; under `COc1ccc(/C=C/c2cnccn2)cc1OC1CCCC1`, 81 to 83 °C. For the compound `CCc1scc(C(=O)OC)c1NC(C)=O`, the melting point was in the range of 85 to 86 °C. Then `COc1cc(-n2nc(C#N)cc2-c2ccc(S(C)(=O)=O)cc2)ccc1F`, with 169 to 171 °C; and `O=C1c2ccccc2CN1C1CCN(c2ccc(C(OCc3ccccn3)c3ccccc3)cc2)CC1` (stereo not drawn), with 149 to 151 °C; and `CC(C)N(C(=O)COc1nnc(C(F)F)s1)c1cccc(Cl)c1`, with 98 °C. Compound `CCc1cn(C2CC(O)C(CN(C)Cc3ccccc3)O2)c(=O)[nH]c1=O` (stereo not drawn) displayed a melting point of 135 to 137 °C. Consider `CC(=O)Oc1cccc(Br)c1`, for which the melting point was in the range of 33 to 40 °C. Under `O=C1c2ccccc2C(=O)N1Cc1noc(-c2ncn3c2[C@@H]2CCN2C(=O)c2c-3cccc2C(F)(F)F)n1` stands 243 to 245 °C; under `C#CC(O)c1ncn(C(c2ccccc2)(c2ccccc2)c2ccccc2)n1` (stereo not drawn), 138 to 139 °C.

`COc1ccc(N2CCOCC2)c2sc(C(=O)NCC(=O)c3csc4ccccc34)nc12` showed a melting point of 210 °C. Take `COc1c(C)cnc(C#N)c1C`: the melting point fell in the range of 59 to 61 °C.

For `C#CCOC(=O)C1=C(C)NC(C)=C(C(=O)OC)C1c1ccccc1C(F)(F)F` (stereo not drawn), the melting point is 115 °C. Under `Oc1cc(-c2ccccc2)ncn1` stands 266 to 267 °C; under `N#Cn1nc(-c2ccccc2)c(=O)cc1I`, 135 to 137 °C. With `O=[N+]([O-])c1ccccc1Cc1n[nH]c(S)n1`, the melting point is 239 to 241 °C.

On to `C=Cc1ccnc(-c2cc(C)ccn2)c1`, for which the melting point lay within 82 to 86 °C. Compound `CN(C)CCCOc1ccc2c(=O)c3ccc(OCCCN(C)C)cc3oc2c1` registered a melting point of 69 to 70 °C. `CC(C)[C@H](NC(=O)OCc1ccccc1)C(=O)NCc1ccccc1` displayed a melting point of 174 °C.

`CCOC(=O)c1c(-c2ccccc2)c(-c2ccc(F)cc2)c(C=O)n1C(C)C`: the melting point is 88 to 90 °C.

Regarding `CCCc1nc2cc(Cl)c(S(N)(=O)=O)cc2[nH]1`, the melting point lay within 230 to 234 °C.

In turn, `CN(c1cccc2cc(-c3ncc(CN4CCOCC4)s3)[nH]c12)S(=O)(=O)c1cccs1` yielded a melting point of 181 to 182 °C. In the case of `CNCCCOc1ccc(S(=O)(=O)c2[nH]c3ccccc3c2C(C)C)cc1`, the melting point turned out to be 115 °C.

`COC(=O)CCC(C)C(=O)N1CCC[C@H]1C(=O)O` (stereo partly drawn) registered a melting point of 174 to 175 °C. Then `N#Cc1ccc(Cc2cccc3c2CCN(Cc2cncn2Cc2ccc(C#N)cc2)C3)cc1`, with 195 to 196 °C; and `NC(Cc1ccc(O)cc1)CN1CCN(c2ccccc2)CC1` (stereo not drawn), with above 270 °C.

In turn, `COc1ccc2c(c1)C(c1ccc(N)cc1)=NN(C(=O)C1CC1)C(C)=C2` registered a melting point of 214 to 216 °C. Under `COc1ccc(N2CCN(c3c(C)c(C)c4c(c3C)C(c3ccoc3)C(C)(C)O4)CC2)cc1` (stereo not drawn) stands 110 to 113 °C; under `COc1cc(CO)c(-c2cccc(OCCC(C)CCCC(C)C)c2)cc1CO` (stereo not drawn), 55 °C. Under `CCC1C(C)=NN=C(c2ccc(OC)c(OC)c2)c2cc(OC)c(OCCCN(C)C)cc21` (stereo not drawn) stands 126 to 128 °C; under `COC(=O)CCSCC(=O)c1cc2c(cc1Cl)NC(=O)C2`, 75 to 77 °C; under `Nc1cnn(CCO)c1NCCO`, 140 to 142 °C. `CC1(C)CC(OC(=O)c2ccccc2C(=O)OC2CC(C)(C)N(OC3CCCCC3)C(C)(C)C2)CC(C)(C)N1OC1CCCCC1`: the melting point was 149 to 151 °C. In turn, `CCOC(=O)c1c(C)nn(-c2ccc(F)cc2)c1N` displayed a melting point of 129 to 131 °C. Compound `CCc1cc(C)cc(CC)c1C1C(=O)CC2(CCOCC2)CC1=O` yielded a melting point of 139 to 141 °C. `CC(=O)Nc1ncc(/C=C\c2ccc([N+](=O)[O-])cc2)s1` returned a melting point of 221 to 223 °C. As to `CCC(=O)Nc1ccc(Cl)c(-n2nc(CC)n(Cc3ccc(-c4ccccc4S(=O)(=O)NC(=O)OC(C)(C)C)cc3F)c2=O)c1`, the melting point was 142 to 144 °C. Turning to `C#Cc1cn(C2CC(O)C(CO)O2)c(=O)n(C(=O)c2ccc(C)cc2)c1=O` (stereo not drawn), the melting point lay in the range of 176 to 179 °C. The compound `O=C1N=NC(=O)c2c1[nH]c1cc(C(F)(F)F)ccc21` gave a melting point of 291 to 293 °C. `CC(C)Cn1c(Nc2cc(C(F)(F)F)ccc2C(F)(F)F)nc(C(F)(F)F)cc1=O` displayed a melting point of 136 to 138 °C. Under `CC(C)(C)c1cc(SCN2C(=O)CC(Sc3cc(C(C)(C)C)c(O)c(C(C)(C)C)c3)C2=O)cc(C(C)(C)C)c1O` (stereo not drawn) stands 138 to 140 °C. Compound `CC(C)c1cc(C(C)C)c(CC(=O)NS(=O)(=O)Oc2c(C(C)C)cc(N)cc2C(C)C)c(C(C)C)c1` displayed a melting point of 153 to 155 °C. `COC(=O)c1ccc(C=CC(=O)N2CCc3c([nH]c4ccccc34)C2c2ccc3c(c2)CCO3)cc1` (stereo not drawn) returned a melting point of 186 °C. Then `Cc1c(-c2ccc(C(F)(F)F)cc2)n(Cc2ccc(OCCN3CCCCC3)cc2)c2ccc(O)cc12`, with 174 °C.
